{"source": "patent US20230034978A1", "about": "“PROCESS FOR MEASURING EFFICACY OF PAIN THERAPY” (priority 2021, published 2023)", "key": {"[1]": {"test_system": "CMi fibers (axon flare) in rhesus monkeys", "assay": "DLss induced axon flare before and after intradermal lidocaine injection", "type": "in vivo", "details": "intradermal 2.0% lidocaine injection; four rhesus monkeys; saline subdermal injection as control", "from_the_text": "Lidocaine is a wide spectrum sodium channel blocker that is used clinically as a dermal patch or intradermal injection 97-99 for treatment of peripheral neuropathic pain 3, 99. […] C and Aδ fibers are differentially affected by lidocaine treatment 99-101, and suppression of repetitive CMi activation that mimics spontaneous activity is a potent consequence of lidocaine treatment 100. Flare response in rhesus monkeys, a primate animal model for human neuropathic pain generation and nociceptor dynamics was similar to that observed in healthy subjects (FIG. 2). A total of four monkeys were tested. DLss induced flare was evaluated before and after intradermal 2.0% lidocaine injection and saline subdermal injection was used as a control. […]\n• Diode laser for selective stimulation (DLss) testing of C:Aδ ratio. […] Skin temperature on the dorsal foot will be monitored and maintained at 32-33° C. using periodic heating pad warming. • Laser detection and pain thresholds (separately for Aδ and C fiber stimulation) were quantified using the “method of levels” on a 6×6 cm stimulus grid drawn on the foot dorsum, shifting location and using a series of ascending stimulations starting from sub-detection intensity, increasing by fixed increments with the highest stimulation determined by participant reporting a painful sensation with intensity between 30 and 40 on the 0-100 VAS. […]"}, "[2]": {"test_system": "participants with peripheral ongoing neuropathic pain (p-ONP) / peripheral neuropathy", "assay": "Lidocaine patch cross-over trial (Example 2A): pain VAS and DLss C:Aδ ratio", "type": "in vivo, human", "details": "lidocaine patch (5%) or placebo patch, 7 day treatment, p<0.01", "experimental": "70 p-ONP participants to with mean pain VAS >40 mm who undergo baseline DLss, and pain measures. Response to VAS was compared to change in C:Aδ ratio following treatment with peripherally active lidocaine patch (5%), or placebo patch using a 7 day treatment cross-over design with 14 day washout between treatment arms.\n• Diode laser for selective stimulation (DLss) testing of C:Aδ ratio. Detection and pain thresholds for fiber-selective laser stimulation was performed with Lass-10M, as previously described (patents U.S. Pat. No. 7,402,167B2 and U.S. Pat. No. 8,029,553B2). The foot dorsum was shaved to limit light absorption and overheating. Skin temperature on the dorsal foot will be monitored and maintained at 32-33° C. using periodic heating pad warming. • Laser detection and pain thresholds (separately for Aδ and C fiber stimulation) were quantified using the “method of levels” on a 6×6 cm stimulus grid drawn on the foot dorsum, shifting location and using a series of ascending stimulations starting from sub-detection intensity, increasing by fixed increments with the highest stimulation determined by participant reporting a painful sensation with intensity between 30 and 40 on the 0-100 VAS. […] Blood perfusion was recorded by Speckle Imaging (PeriCam PSI System, Perimed, Sweden), following DLss stimulus using the C fiber protocol above. […]"}, "[3]": {"test_system": "peripheral ONP", "details": "lidocaine injection; reference 12; cited from earlier work"}}}
{"molecule": "CCN(CC)CC(=O)Nc1c(C)cccc1C", "note": "[lidocaine]", "values": [{"measurement": "axon flare area after injection compared to saline", "setting": "[1]", "result": "markedly reduced"}, {"measurement": "Change in C:Aδ ratio, lidocaine versus placebo treatment groups", "setting": "[2]", "result": "distinguish lidocaine from placebo treatment groups"}, {"measurement": "block of peripheral ONP", "setting": "[3]", "result": "completely block"}]}
